According to patent publication US20200277268A1, “PENTAFLUOROPHENYL SULFONAMIDE COMPOUNDS, COMPOSITIONS AND USES THEREOF” (DALRIADA THERAPEUTICS INC., priority 2017, published 2020):

Legend:
MV4-11 = assay: CellTiter-Blue cell viability, MV4-11; assay type: cell-based; conditions: for activity in AML cells: AML cells (MV4-11 and MOLM13); for IC50: Homo sapiens, MV4-11, AML cell line, 72 hours
Method: (§1) The anti-cancer efficacy of exemplary compounds of the application were assessed in vitro against different cancer cell lines. Cell viability was examined following treatment at various concentrations of inhibitor (0.097656-50 μM) using a CellTiter-Blue® cell viability assay. 1×10^4 cells/well were plated in 96-well assay plates in culture medium. All cells were grown in DMEM, IMDM and RPMI-1640 supplemented with 10% fetal bovine serum (FBS). In some instances, FBS was removed for periods ranging from 16-24 hours, and re-introduced with test compound addition. After 24 hrs, test compounds and vehicle controls were added to appropriate wells such that the final volume was 100 μl in each well. The cells were cultured for the desired test exposure period (72 hours) at 37° C. and 5% CO2. The assay plates were removed from 3° C. incubator and 20 μl/well of CellTiter-Blue® Reagent was added. The plates were incubated using standard cell culture conditions for 1-4 hours. Afterwards, the plates were shaken for 10 seconds and florescence was recorded at 560/590 nm using a Cytation 3 spectrophotometer. IC50 values were determined using non-linear regression analysis with GraphPad Prism 6.0 (GraphPad Software Inc.).

MOLM13 = assay: CellTiter-Blue cell viability, MOLM13; assay type: cell-based; conditions: Homo sapiens, MOLM-13; AML cell line, 72 hours
Method: as §1

O=S(=O)(c1ccccc1)N(Cc1ccc(F)cc1)C1CC1 [Comparative Example 2, N-cyclopropyl-N-(4-fluorobenzyl)benzenesulfonamide, reference compound]
activity in AML cells (MV4-11): inactive
IC50 (MV4-11): ≥ 25000 nM
IC50 (MOLM13): ≥ 25000 nM

O=S(=O)(Nc1ccc(F)cc1)c1c(F)c(F)c(F)c(F)c1F [Comparative Example 5, 2,3,4,5,6-pentafluoro-N-(4-fluorophenyl)benzenesulfonamide, reference compound]
IC50 (MV4-11): 4400 nM
potency relative to parent I-1 analogue (MV4-11; cell viability, Table 1): less potent
IC50 (MOLM13): 17600 nM

O=S(=O)(NC1(c2ccccc2)CC1)c1c(F)c(F)c(F)c(F)c1F [Comparative Example 7, 2,3,4,5,6-pentafluoro-N-(1-phenylcyclopropyl)benzenesulfonamide, reference compound]
IC50 (MV4-11): 31000 nM

O=S(=O)(c1c(F)c(F)cc(F)c1F)N(Cc1ccc(F)cc1)C1CC1 [Comparative Example 8, N-cyclopropyl-2,3,5,6-tetrafluoro-N-(4-fluorobenzyl)benzenesulfonamide, reference compound]
activity in AML cells (MV4-11): inactive
IC50 (MV4-11): > 12500 nM
IC50 (MOLM13): > 25000 nM

O=S(=O)(c1c(F)c(F)c(F)c(F)c1F)N(Cc1ccc(F)cc1)C1CCCC1 [Compound I-5, N-cyclopentyl-2,3,4,5,6-pentafluoro-N-(4-fluorobenzyl)benzenesulfonamide]
IC50 (MV4-11): 700 nM
IC50 (MOLM13): 2000 nM

O=S(=O)(c1c(F)c(F)c(F)c(F)c1F)N(Cc1ccncc1)C1CC1 [Compound I-9, N-cyclopropyl-2,3,4,5,6-pentafluoro-N-(pyridin-4-ylmethyl)benzenesulfonamide]
IC50 (MV4-11): 1830 nM
IC50 (MOLM13): 1620 nM

O=S(=O)(c1c(F)c(F)c(F)c(F)c1F)N(C1CC1)C(c1ccc(F)cc1)C(F)(F)F (stereo not drawn) [Compound I-10, N-cyclopropyl-2,3,4,5,6-pentafluoro-N-(2,2,2-trifluoro-1-(4-fluorophenyl)ethyl)benzenesulfonamide]
IC50 (MV4-11): 974 nM
IC50 (MOLM13): 9830 nM

CCOC(=O)C1(N(Cc2ccc(F)cn2)S(=O)(=O)c2c(F)c(F)c(F)c(F)c2F)CC1 [Compound I-18, Ethyl 1-((2,3,4,5,6-pentafluoro-N-((5-fluoropyridin-2-yl)methyl)phenyl)sulfonamido)cyclopropane-1-carboxylate]
IC50 (MV4-11): 2800 nM
IC50 (MOLM13): 6200 nM

COc1cc(CN(C2CC2)S(=O)(=O)c2c(F)c(F)c(F)c(F)c2F)cc(OC)c1 [Compound I-22, N-cyclopropyl-N-(3,5-dimethoxybenzyl)-2,3,4,5,6-pentafluorobenzenesulfonamide]
IC50 (MV4-11): 4700 nM
IC50 (MOLM13): 4500 nM

CS(=O)(=O)c1ccc(CN(C2CC2)S(=O)(=O)c2c(F)c(F)c(F)c(F)c2F)cc1 [Compound I-24, N-cyclopropyl-2,3,4,5,6-pentafluoro-N-(4(methylsulfonyl)benzyl)benzenesulfonamide]
IC50 (MV4-11): 1150 nM
IC50 (MOLM13): 1350 nM

COC(=O)c1ccc(CN(C2CC2)S(=O)(=O)c2c(F)c(F)c(F)c(F)c2F)cc1 [Compound I-27, Methyl 4-(((N-cyclopropyl-2,3,4,5,6-pentafluorophenyl)sulfonamido)methyl)benzoate]
IC50 (MV4-11): 2000 nM
IC50 (MOLM13): 900 nM

O=S(=O)(c1c(F)c(F)c(F)c(F)c1F)N(Cc1ccccn1)C1CC1 [Compound I-32, N-cyclopropyl-2,3,4,5,6-pentafluoro-N-(pyridin-2-ylmethyl)benzenesulfonamide]
IC50 (MV4-11): 1500 nM
IC50 (MOLM13): 1300 nM

O=C(OCc1ccccc1)c1ccc(CN(C2CC2)S(=O)(=O)c2c(F)c(F)c(F)c(F)c2F)cc1 [Compound I-41, Benzyl 4-(((N-cyclopropyl-2,3,4,5,6-pentafluorophenyl)sulfonamido)methyl)benzoate]
IC50 (MV4-11): 1000 nM
IC50 (MOLM13): 3200 nM

O=S(=O)(c1c(F)c(F)c(F)c(F)c1F)N(Cc1ccc(F)cc1)C1CCOC1 (stereo not drawn) [Compound I-51, 2,3,4,5,6-pentafluoro-N-(4-fluorobenzyl)-N-(tetrahydrofuran-3-yl)benzenesulfonamide]
IC50 (MV4-11): 4800 nM
IC50 (MOLM13): 3370 nM
